# Measured values taken from patent US9884839B2, “Inhibitors of 17Beta-hydroxysteroid dehydrogenases type 1 and type 2” (ElexoPharm GmbH, priority 2014, dated 2018).
# Read-outs that look alike come from different tables or passages of the source.
# Assays:
# Format in all cases: biochemical
# human 17β-HSD2 = biological target: T1, human 17β-HSD2 (Homo sapiens, UniProt P37059); experiment: Inhibition of human 17β-HSD2 (conversion of [3H]-E2 to E1); conditions: for inhibition at 1 µM: read-out: % inhibition h17β-HSD2 @ 1 μM; for inhibition at 0.01 µM: read-out: % inhibition h17β-HSD2 @ 10 nM
# T1 construct: 17β-HSD2 was obtained from the microsomal fraction; from tissue; host or cells: human placenta, microsomal fraction
# T1 sequence (P37059 1-387): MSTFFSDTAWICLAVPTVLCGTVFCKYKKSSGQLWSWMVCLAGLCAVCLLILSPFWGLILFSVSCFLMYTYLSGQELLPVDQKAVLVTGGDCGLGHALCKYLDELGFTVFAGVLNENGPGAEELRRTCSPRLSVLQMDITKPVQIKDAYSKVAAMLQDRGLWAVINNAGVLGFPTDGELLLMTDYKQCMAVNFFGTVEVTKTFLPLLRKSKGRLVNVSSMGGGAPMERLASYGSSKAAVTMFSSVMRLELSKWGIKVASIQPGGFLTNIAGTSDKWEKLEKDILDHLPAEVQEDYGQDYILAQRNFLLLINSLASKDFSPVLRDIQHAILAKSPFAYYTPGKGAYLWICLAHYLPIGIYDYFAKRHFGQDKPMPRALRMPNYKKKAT
# Experimental: Fresh human placenta was homogenized, and cytosolic fraction and microsomes were separated by differential centrifugation at 1,000 g, 10,000 g and 150,000 g.
# (§1) The conversion rate was calculated after analysis of the resulting chromatograms according to the following equation: % conversion=[% E1/(% E1+% E2)]×100
# human 17β-HSD1 = biological target: T2, human 17β-HSD1 (Homo sapiens, UniProt P14061); experiment: Inhibition of human 17β-HSD1 (conversion of [3H]-E1 to E2, HPLC radioflow detection); conditions: for IC50: read-out: IC50 [nM] h17β-HSD1; for inhibition at 1 µM: read-out: % inhibition h17β-HSD1 @ 1 μM; for inhibition at 0.01 µM: read-out: % inhibition h17β-HSD1 @ 10 nM
# T2 construct: For the partial purification of 17β-HSD1, the cytosolic fraction was precipitated with ammonium sulfate; from tissue; host or cells: human placenta, cytosolic fraction, ammonium sulfate precipitate
# T2 sequence (P14061 1-328): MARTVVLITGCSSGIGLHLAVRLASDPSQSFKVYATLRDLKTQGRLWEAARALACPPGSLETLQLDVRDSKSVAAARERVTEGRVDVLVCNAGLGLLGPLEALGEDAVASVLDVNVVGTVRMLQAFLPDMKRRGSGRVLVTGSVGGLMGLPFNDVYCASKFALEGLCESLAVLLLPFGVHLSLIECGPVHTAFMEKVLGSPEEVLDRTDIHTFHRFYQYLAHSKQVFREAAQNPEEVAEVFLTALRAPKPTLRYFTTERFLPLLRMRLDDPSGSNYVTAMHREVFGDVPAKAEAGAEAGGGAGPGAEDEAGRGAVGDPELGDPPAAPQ
# mouse 17β-HSD1 = biological target: T3, mouse 17β-HSD1 (Mus musculus, UniProt P51656); experiment: Inhibition of mouse 17β-HSD1 (recombinant, HEK293 lysate); conditions: for IC50: read-out: IC50 m17β-HSD1
# T3 construct: made in house; host or cells: HEK293 cells, transient transfection; 1,000 g supernatant of the cell lysate
# T3 sequence (P51656 1-344): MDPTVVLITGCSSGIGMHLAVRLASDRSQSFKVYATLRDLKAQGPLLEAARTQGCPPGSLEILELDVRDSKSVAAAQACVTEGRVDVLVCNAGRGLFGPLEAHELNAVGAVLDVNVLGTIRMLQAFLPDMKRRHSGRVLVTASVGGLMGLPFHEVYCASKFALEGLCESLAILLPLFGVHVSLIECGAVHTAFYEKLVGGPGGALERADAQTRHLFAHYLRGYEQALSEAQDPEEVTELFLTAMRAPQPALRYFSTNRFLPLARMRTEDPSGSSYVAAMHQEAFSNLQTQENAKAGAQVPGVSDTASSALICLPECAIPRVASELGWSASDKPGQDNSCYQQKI
# mouse 17β-HSD2 = biological target: T4, mouse 17β-HSD2 (Mus musculus, UniProt P51658); experiment: Inhibition of mouse 17β-HSD2 (liver microsomal fraction); conditions: for IC50: read-out: IC50 m17β-HSD2; for inhibition at 0.1 µM: read-out: % inhibition m17β-HSD2 @ 100 nM; for inhibition at 0.05 µM: read-out: % inhibition m17β-HSD2 @ 50 nM
# T4 construct: The pellet fractions containing the microsomal 17β-HSD2 were used for the determination of E1 formation; from tissue; host or cells: mouse liver, microsomal fraction
# T4 sequence (P51658 1-381): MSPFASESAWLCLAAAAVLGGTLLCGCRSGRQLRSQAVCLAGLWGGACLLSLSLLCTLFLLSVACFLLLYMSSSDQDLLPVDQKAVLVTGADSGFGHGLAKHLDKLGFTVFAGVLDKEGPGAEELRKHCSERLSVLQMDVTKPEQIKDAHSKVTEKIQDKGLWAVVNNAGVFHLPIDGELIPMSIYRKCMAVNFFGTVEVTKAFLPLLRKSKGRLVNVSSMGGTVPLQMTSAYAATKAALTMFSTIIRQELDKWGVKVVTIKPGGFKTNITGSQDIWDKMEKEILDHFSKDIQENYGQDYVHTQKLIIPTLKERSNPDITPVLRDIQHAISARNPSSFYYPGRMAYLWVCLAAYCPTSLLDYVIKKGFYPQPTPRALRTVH
# Experimental: Microsomal 17β-HSD2 fractions were obtained from mouse or rat liver. Fresh liver tissues were processed as described for the human placental 17β-HSD2 preparation. The pellet fractions containing the microsomal 17β-HSD2 were used for the determination of E1 formation.
# as §1
# [1] = human placental cytosolic enzyme, E1 500 nM, NADH, Tables 1, 4-11
# [2] = read-out: % inhibition m17β-HSD1 @ 1 μM
# [3] = read-out: % inhibition m17β-HSD2 @ 1 μM
# [4] = read-out: Inhibition @ 1 μM m17β-HSD1
# [5] = read-out: Inhibition @ 1 μM m17β-HSD2
SMILES,IC50 (human 17β-HSD2; read-out: IC50 [nM] h17β-HSD2) [nM],IC50 (human 17β-HSD1; [1]) [nM],inhibition at 1 µM (mouse 17β-HSD1; [4]) [%],inhibition at 1 µM (mouse 17β-HSD2; [5]) [%],further results
"O=C(c1ccc(Br)s1)c1cc(F)c(F)c(O)c1F [Compound 1g, (5-Bromo-thiophen-2-yl)-(2,4,5-trifluoro-3-hydroxy-phenyl)-methanone]",27,130,11,44,inhibition at 1 µM (mouse 17β-HSD1; [2]): 11%; inhibition at 1 µM (mouse 17β-HSD2; [3]): 44%
"O=C(c1ccc(-c2cccc(Cl)c2O)s1)c1c(F)ccc(O)c1F [Compound 22, [5-(3-Chloro-2-hydroxy-phenyl)-thiophen-2-yl]-(2,6-difluoro-3-hydroxy-phenyl)-methanone]",29,–,46,82,IC50 (human 17β-HSD1): 27 nM
"COc1c(Cl)cc(-c2ccc(C(=O)c3c(F)ccc(O)c3F)s2)cc1CN1CCN(C(C)=O)CC1 [Compound 28, 1-(4-{3-Chloro-5-[5-(2,6-difluoro-3-hydroxy-benzoyl)-thiophen-2-yl]-2-methoxy-benzyl}-piperazin-1-yl)-ethanone]",21,–,37,45,IC50 (human 17β-HSD1): 1.4 nM
"COc1c(Cl)cc(-c2ccc(C(=O)c3c(F)ccc(OC(C)=O)c3F)s2)cc1Cn1ccnn1 [Compound 31a, Acetic acid 3-[5-(3-chloro-4-methoxy-5-[1,2,3]triazol-1-ylmethyl-phenyl)-thiophene-2-carbonyl]-2,4-difluoro-phenylester]",–,–,20,–,inhibition at 1 µM (human 17β-HSD2): 32%; inhibition at 1 µM (human 17β-HSD1): 28%
"O=C(c1ccc(-c2cncc(F)c2)s1)c1cc(F)c(F)c(O)c1F [Compound 39, [5-(5-Fluoro-pyridin-3-yl)-thiophen-2-yl]-(2,4,5-trifluoro-3-hydroxy-phenyl)-methanone]",18,59,9,24,–
"O=C(c1ccc(-c2ccc(O)c(F)c2)s1)c1cc(F)c(F)c(O)c1F [Compound 42, (5-(3-Fluoro-4-hydroxyphenyl)thiophen-2-yl)(2,4,5-trifluoro-3-hydroxyphenyl)methanone]",3,2.5,46,84,–
"NC(=O)c1cccc(-c2ccc(C(=O)c3cc(F)c(F)c(O)c3F)s2)c1 [Compound 44, 3-(5-(2,4,5-Trifluoro-3-hydroxybenzoyl)thiophen-2-yl)benzamide]",6.8,22.4,–,–,"inhibition at 0.1 µM (mouse 17β-HSD1; read-out: % inhibition m17β-HSD1 @ 100 nM, compound 100 nM): 10%; inhibition at 0.1 µM (mouse 17β-HSD2): 19%"
"COc1c(C)cc(-c2ccc(C(=O)c3cc(F)c(F)c(O)c3F)s2)cc1C [Compound 46, (5-(4-Methoxy-3,5-dimethylphenyl)thiophen-2-yl)(2,4,5-trifluoro-3-hydroxyphenyl)methanone]",2.3,1.2,13.4,–,inhibition at 0.1 µM (mouse 17β-HSD2): 16%
"O=C(c1ccc(-c2cccc(CO)c2)s1)c1cc(F)c(F)c(O)c1F [Compound 47, (5-(3-(Hydroxymethyl)phenyl)thiophen-2-yl)(2,4,5-trifluoro-3-hydroxyphenyl)methanone]",4.4,5.9,13.8,–,IC50 (mouse 17β-HSD2): 260 nM
"O=C(c1ccc(-c2cc(Cl)c(O)c(Cl)c2)s1)c1cc(F)c(F)c(O)c1F [Compound 49, (5-(3,5-Dichloro-4-hydroxyphenyl)thiophen-2-yl)(2,4,5-trifluoro-3-hydroxyphenyl)methanone]",11.2,9.1,13.8,–,–
"NS(=O)(=O)c1ccc(-c2ccc(C(=O)c3c(F)ccc(O)c3F)s2)cc1 [Compound 75, 4-(5-(2,6-Difluoro-3-hydroxybenzoyl)thiophen-2-yl)benzenesulfonamide]",–,–,–,–,inhibition at 0.01 µM (human 17β-HSD2): 54%; inhibition at 0.01 µM (human 17β-HSD1): 18%; inhibition at 0.05 µM (mouse 17β-HSD2): 10%
"NS(=O)(=O)c1cccc(-c2ccc(C(=O)c3c(F)ccc(O)c3F)s2)c1 [Compound 76, 3-(5-(2,6-Difluoro-3-hydroxybenzoyl)thiophen-2-yl)benzenesulfonamide]",–,–,–,–,inhibition at 0.01 µM (human 17β-HSD2): 26%; inhibition at 0.01 µM (human 17β-HSD1): 34%; inhibition at 0.05 µM (mouse 17β-HSD2): 1.8%
"COc1c(Cl)cc(-c2ccc(C(=O)c3c(F)ccc(O)c3Cl)s2)cc1Cl [Compound 78, (2-Chloro-6-fluoro-3-hydroxyphenyl)(5-(3,5-dichloro-4-methoxyphenyl)thiophen-2-yl)methanone]",–,–,–,–,inhibition at 0.01 µM (human 17β-HSD2): 54%; inhibition at 0.01 µM (human 17β-HSD1): 41%; inhibition at 0.05 µM (mouse 17β-HSD2): 76%
"O=C(c1cccc(O)c1)c1ccc(-c2ccc(O)c(Cl)c2)s1 [D, reference compound]",–,5,–,–,IC50 (human 17β-HSD2): 240 nM; inhibition at 1 µM (mouse 17β-HSD1; [2]): 42%; inhibition at 1 µM (mouse 17β-HSD2; [3]): 9%
"Cc1c(O)cccc1C(=O)c1ccc(-c2ccc(O)c(Cl)c2)s1 [E, reference compound]",–,–,–,–,inhibition at 1 µM (human 17β-HSD2): 93%; inhibition at 1 µM (human 17β-HSD1): 76%; inhibition at 1 µM (mouse 17β-HSD1; [2]): 14%; inhibition at 1 µM (mouse 17β-HSD2; [3]): 92%

# Second part, led by results:
IC50 (human 17β-HSD2; read-out: IC50 [nM] h17β-HSD2) [nM],IC50 (human 17β-HSD1; [1]) [nM],inhibition at 1 µM (mouse 17β-HSD1; [4]) [%],inhibition at 1 µM (mouse 17β-HSD2; [5]) [%],SMILES,further results
300,3430,–,–,"Cc1c(O)cccc1C(=O)c1ccc(-c2ccc(F)cc2F)s1 [B, reference compound]",inhibition at 1 µM (mouse 17β-HSD1; [2]): 5%; inhibition at 1 µM (mouse 17β-HSD2; [3]): 18%
–,–,14,23,"O=C(c1ccc(-c2cccnc2)s1)c1c(F)ccc(O)c1F [Compound 9, (2,6-Difluoro-3-hydroxy-phenyl)-(5-pyridin-3-yl-thiophen-2-yl)-methanone]",inhibition at 1 µM (human 17β-HSD2): 64%; inhibition at 1 µM (human 17β-HSD1): 57%
52,5.5,25,65,"COc1ccc(-c2sc(C(=O)c3c(F)ccc(O)c3F)cc2C)cc1Cl [Compound 13, [5-(3-Chloro-4-methoxy-phenyl)-4-methyl-thiophen-2-yl]-(2,6-difluoro-3-hydroxy-phenyl)-methanone]",–
36,7,47,74,"O=C(c1ccc(-c2cc(F)c(OC(F)F)c(F)c2)s1)c1c(F)ccc(O)c1F [Compound 17, (2,6-Difluoro-3-hydroxy-phenyl)-[5-(4-difluoromethoxy-3,5-difluoro-phenyl)-thiophen-2-yl]-methanone]",–
7.5,28.8,–,–,"O=C(c1ccc(-c2ccc3cc[nH]c3c2)s1)c1cc(F)c(F)c(O)c1F [Compound 43, (5-(1H-Indol-6-yl)thiophen-2-yl)(2,4,5-trifluoro-3-hydroxyphenyl)methanone]","IC50 (mouse 17β-HSD1; recombinant mouse enzyme, E1 10 nM, NADPH): 1.14 µM; IC50 (mouse 17β-HSD2): 113 nM"
239,899,–,–,"Cc1cc(-c2ccc(C(=O)c3cccc(O)c3C)s2)cc(C)c1O [G, reference compound]","IC50 (mouse 17β-HSD1; Table 7, unit μM): 35.5 µM; IC50 (mouse 17β-HSD2): 546 nM"
